From patent US9649289B1, “Method and composition for treating dysbiosis and related disease states” (BioAvivus, LLT, priority 2016, dated 2017)

Assay: Median particle size of salsalate before and after Microfluidics homogenizer passes
Type: physicochemical
Excerpt: Using a Microfluidics® Homogenizer 40, passes with the device take the median particle size of salsalate FIG. 1 from about 40 microns down to about 2.4 microns, as shown in FIG. 2. The resulting salsalate is formulated into unit dose oral dosages, as noted above.

median particle size (after 40 passes with Microfluidics Homogenizer (micronized salsalate of the invention)): about 2.4 microns
median particle size (after 40 passes with Microfluidics Homogenizer (micronized salsalate of the invention), listed as Salsalate): 2.4 microns
median particle size (starting (regular) salsalate, before homogenization): about 40 microns
SMILES: O=C(Oc1ccccc1C(=O)O)c1ccccc1O [salsalate]
